This is an account of results in US11098042B2, “Inhibitors of influenza virus replication and uses thereof” (SUNSHINE LAKE PHARMA CO., LTD., priority 2017, dated 2021).

One data set relates to virus H1N1 A/Weiss/43. In words: microbe, parasite or virus in culture. The conditions noted are these: Influenza A virus, 120 h; inhibition of CPE of H1N1 A/Weiss/43 in MDCK cells, 5 days, CCK-8. The format is cell-based.
The next data set can be described thus: in vivo. The conditions noted are these: Sprague-Dawley (SD), rat.

SMILES strings stand for the structures.

Description for in vivo: Pharmacokinetic characteristics of the compounds of the invention in SD rat were evaluated. The compounds disclosed herein were administered in form of a saline solution containing 5% DMSO, 5% Kolliphor HS 15 and 90% Saline. For intravenous administration (iv), the animals were administered with a dose of 1 mg/kg, and blood samples (0.3 mL) were collected at the time points of 0.083, 0.25, 0.5, 1.0, 2.0, 5.0, 7.0 and 24 h after drug administration, then each blood sample was processed to separate plasma by centrifugation at 3000 rpm or 4000 rpm for 10 minutes. […] Plasma samples were collected and stored at −20° C. or −70° C. until LC/MS/MS analysis.

The EC50 is the concentration at which the effect is half-maximal. The molecule `O=C(O)C1C2CCC(CC2)C1Nc1cc(-c2ccc3ccccc3c2)nc(-c2n[nH]c3ncc(Cl)cc23)n1` (racemic) [Example 31, (+/−)-trans-3-((2-(5-chloro-1H-pyrazolo[3,4-b]pyridin-3-yl)-6-(naphthalene-2-yl)pyrimidin-4-yl)amino)bicyclo[2.2.2]octane-2-carboxylic Acid] yielded an EC50 in the data set with virus H1N1 A/Weiss/43 of 0.513 nM. Still for that read-out and setting: the result for `O=C(O)C1C2CCC(CC2)C1Nc1cc(C2CC2)nc(-c2n[nH]c3ncc(Cl)cc23)n1` (racemic) [Example 30, (+/−)-trans-3-((2-(5-chloro-1H-pyrazolo[3,4-b]pyridin-3-yl)-6-cyclopropylpyrimidin-4-yl)amino)bicyclo[2.2.2]octane-2-carboxylic Acid] reads 0.35 nM; that for `O=C(O)C1C2CCC(CC2)C1Nc1cc(-c2cc3ccccc3o2)nc(-c2n[nH]c3ncc(Cl)cc23)n1` (racemic) [Example 14, (+/−)-trans-3-((6-(benzofuran-2-yl)-2-(5-chloro-1H-pyrazolo[3,4-b]pyridin-3-yl)pyrimidin-4-yl)amino)bicyclo[2.2.2]octane-2-carboxylic Acid], 0.696 nM. As to `Cn1ccc2c(NC3C4CCC(CC4)C3C(=O)O)nc(-c3n[nH]c4ncc(Cl)cc34)nc21` (racemic) [Example 3, (+/−)-trans-3-((2-(5-chloro-1H-pyrazolo[3,4-b]pyridin-3-yl)-7-methyl-7H-pyrrolo[2,3-d]pyrimidin-4-yl)amino)bicyclo[2.2.2]octane-2-carboxylic Acid], the midpoint of the response in the data set on virus H1N1 A/Weiss/43, the EC50, lay at 0.39 nM. In the data set on virus H1N1 A/Weiss/43, `O=C(O)C1C2CCC(CC2)C1Nc1cc(-c2ccccc2)nc(-c2n[nH]c3ncc(Cl)cc23)n1` (racemic) [Example 16, (+/−)-trans-3-((2-(5-chloro-1H-pyrazolo[3,4-b]pyridin-3-yl)-6-phenylpyrimidin-4-yl)amino)bicyclo[2.2.2]octane-2-carboxylic Acid] yielded an EC50 of 0.14 nM.

In the data set on virus H1N1 A/Weiss/43, `O=C(O)C1C2CCC(CC2)C1Nc1cc(-c2ccco2)nc(-c2n[nH]c3ncc(Cl)cc23)n1` (racemic) [Example 1, (+/−)-trans-3-((2-(5-chloro-1H-pyrazolo[3,4-b]pyridin-3-yl)-6-(furan-2-yl)pyrimidin-4-yl)amino)bicyclo[2.2.2]octane-2-carboxylic Acid] registered an EC50 of 0.059 nM.

Molecule `O=C(O)C1C2CCC(CC2)C1Nc1cc(-c2cccs2)nc(-c2n[nH]c3ncc(Cl)cc23)n1` (racemic) [Example 29, (+/−)-trans-3-((2-(5-chloro-1H-pyrazolo[3,4-b]pyridin-3-yl)-6-(thiophen-2-yl)pyrimidin-4-yl)amino)bicyclo[2.2.2]octane-2-carboxylic Acid] had an EC50 in the data set on virus H1N1 A/Weiss/43 of 0.203 nM. The same measure, in the same setting: as for `CC(C)n1ccc2c(N[C@H]3C4CCC(CC4)[C@@H]3C(=O)O)nc(-c3n[nH]c4ncc(F)cc34)nc21` [Example 34, (2S,3S)-3-((2-(5-fluoro-1H-pyrazolo[3,4-b]pyridin-3-yl)-7-isopropyl-7H-pyrrolo[2,3-d]pyrimidin-4-yl)amino)bicyclo[2.2.2]octane-2-carboxylic Acid], the figure is 0.227 nM; as for `O=C(O)[C@H]1C2CCC(CC2)[C@@H]1Nc1cc(-c2ccc(C3CC3)o2)nc(-c2n[nH]c3ncc(F)cc23)n1` [Example 15, (2S,3S)-3-((6-(5-cyclopropylfuran-2-yl)-2-(5-fluoro-1H-pyrazolo[3,4-b]pyridin-3-yl)pyrimidin-4-yl)amino)bicyclo[2.2.2]octane-2-carboxylic Acid], 0.303 nM. A word on the AUC(0-inf): it is the area under the concentration-time curve extrapolated to infinity. High values mean more exposure, low ones less exposure. By AUC(0-t) is commonly meant exposure summed from dosing to a finite time, without extrapolation to infinity. Low readings indicate less exposure, high ones more exposure. What is called clearance is the volume of plasma or blood freed of the substance per unit of time. In the data set with virus H1N1 A/Weiss/43, `O=C(O)C1C2CCC(CC2)C1Nc1nc(-c2n[nH]c3ncc(Cl)cc23)nc(-c2ccco2)c1F` (racemic) [Example 2, (+/−)-trans-3-((2-(5-chloro-1H-pyrazolo[3,4-b]pyridin-3-yl)-5-fluoro-6-(furan-2-yl)pyrimidin-4-yl)amino)bicyclo[2.2.2]octane-2-carboxylic Acid] displayed a concentration for a half-maximal effect (EC50) of 0.054 nM. In “in vivo” (iv, 1 mg/kg), this molecule yielded an AUC(0-inf) of 910 ng·h/mL, an AUC(0-t) of 909 ng·h/mL and a clearance of 18.5 mL/min/kg. Moreover, in the data set “in vivo” (po, 5 mg/kg), the AUC(0-inf) amounted to 1060 ng·h/mL and the AUC(0-t) came to 1060 ng·h/mL. Consider `CC(C)(C)[C@@H](CC(=O)O)Nc1nc(-c2n[nH]c3ncc(Cl)cc23)nc(-c2ccco2)c1F` [Example 4, (R)-3-((2-(5-chloro-1H-pyrazolo[3,4-b]pyridin-3-yl)-5-fluoro-6-(furan-2-yl)pyrimidin-4-yl)amino)-4,4-dimethylpentanoic Acid], for which, in the data set with virus H1N1 A/Weiss/43, the EC50 is 0.075 nM.
